{"source": "ChEMBL document CHEMBL5537201", "about": "“Discovery of Unique Bis-Substituted Aromatic Amide Derivatives as Novel Highly Potent Antibiotics for Combating Methicillin-Resistant Staphylococcus aureus (MRSA)” (J Med Chem, 2024)", "key": {"[1]": {"tested_on": "Staphylococcus aureus", "assay": "Antimicrobial activity against Staphylococcus aureus N315 assessed as reduction in bacterial growth incubated for 24 hrs by two-fold broth dilution method", "assay_type": "functional"}, "[2]": {"tested_on": "Peptidoglycan", "assay": "Binding affinity to methicillin resistant Staphylococcus aureus clinical isolate MRS153 peptidoglycan assessed as change in MIC at upto 256 ug/ml measured after 22 hrs", "conditions": "dose <= 256.0 µg/ml"}, "[3]": {"tested_on": "Staphylococcus aureus", "assay": "In vivo antibacterial activity against methicillin-resistant Staphylococcus aureus clinical isolate MRS153 infected in C57BL/6N mouse model assessed as reduction in bacterial load in kidney at 3.125 to 12.5 mg/kg, iv measured after 24 hrs", "assay_type": "functional, organism-based", "conditions": "dose 3.125-12.5 mg/kg"}, "[4]": {"tested_on": "Staphylococcus aureus", "assay": "Bactericidal activity against vancomycin-resistant Staphylococcus aureus ATCC6538 measured upto 120 mins by colony counting method", "assay_type": "functional, organism-based"}, "[5]": {"tested_on": "Staphylococcus aureus", "assay": "Antimicrobial activity against methicillin resistant Staphylococcus aureus clinical isolate MRS152 assessed as reduction in bacterial growth incubated for 24 hrs by two-fold broth dilution method", "assay_type": "functional"}, "[6]": {"tested_on": "Cell membrane", "assay": "Induction of cytoplasmic membrane depolarization in Staphylococcus aureus ATCC6538 assessed as increase in fluorescence intensity measured upto 120 mins by DiSC3(5) dye based fluorescence method", "assay_type": "cell membranes"}, "[7]": {"tested_on": "Staphylococcus aureus", "assay": "Binding affinity to methicillin resistant Staphylococcus aureus clinical isolate MRS153 Phosphatidylglycerol assessed as change in MIC at upto 256 ug/ml measured after 22 hrs", "conditions": "dose <= 256.0 µg/ml"}, "[8]": {"tested_on": "Staphylococcus aureus", "assay": "Antimicrobial activity against methicillin resistant Staphylococcus aureus clinical isolate MRS121 assessed as reduction in bacterial growth incubated for 24 hrs by two-fold broth dilution method", "assay_type": "functional"}, "[9]": {"assay": "Selectivity index, ratio of IC50 for African green monkey Vero E6 cells to MIC for Staphylococcus aureus ATCC6538", "assay_type": "toxicity", "conditions": "read-out: Selectivity Index"}, "[10]": {"tested_on": "Staphylococcus aureus", "assay": "Antimicrobial activity against methicillin resistant Staphylococcus aureus clinical isolate MRS153 assessed as proton dynamic dissipation at pH 5 to 11", "assay_type": "functional, organism-based"}, "[11]": {"assay": "Cytotoxicity against human HaCaT cells assessed as reduction in cell viability measured after 24 hrs by CCK-8 method", "assay_type": "toxicity, cell-based"}, "[12]": {"tested_on": "Cell membrane", "assay": "Induction of inner membrane permeabilization in Staphylococcus aureus ATCC6538 assessed as disruption of cell membrane by measuring rightward shift measured after by PI staining based flow cytometry analysis", "assay_type": "cell membranes"}, "[13]": {"assay": "Toxicity in BALB/c mouse assessed as as change in AST level at 25 to 50 mg/kg, iv", "assay_type": "organism-based", "conditions": "in vivo, dose 25-50 mg/kg"}, "[14]": {"tested_on": "Staphylococcus aureus", "assay": "Upregulation of multidrug efflux pump genes in Staphylococcus aureus ATCC6538 at 5 ug/ml incubated for 2 hrs by RNA sequencing analysis", "assay_type": "functional", "conditions": "dose 5.0 µg/ml"}, "[15]": {"tested_on": "Staphylococcus aureus", "assay": "Bactericidal activity against Staphylococcus aureus ATCC6538 at 5 ug/ml measured upto 150 mins", "assay_type": "functional, organism-based", "conditions": "dose 5.0 µg/ml"}, "[16]": {"tested_on": "Staphylococcus aureus", "assay": "Antibacterial activity against methicillin-resistant Staphylococcus aureus clinical isolate MRS153 infected in C57BL/6N mouse model assessed as infiltration of inflammatory cells at 3.125 to 12.5 mg/kg, iv", "assay_type": "functional, organism-based", "conditions": "dose 3.125-12.5 mg/kg"}, "[17]": {"tested_on": "Staphylococcus aureus", "assay": "Antimicrobial activity against Staphylococcus aureus ATCC6538 assessed as increase in ROS levels measured upto 90 mins by H2DCFDA probe based flow cytometry", "assay_type": "functional, organism-based"}, "[18]": {"assay": "Hemolytic activity in rabbit Red blood cell assessed as hemolysis incubated for 1 hr by two-fold microdilution method", "assay_type": "toxicity, cell-based, Oryctolagus cuniculus, Erythrocyte", "conditions": "red blood cells (erythrocytes)"}, "[19]": {"tested_on": "Cell membrane", "assay": "Induction of inner membrane permeabilization in methicillin resistant Staphylococcus aureus clinical isolate MRS153 assessed as disruption of cell membrane by measuring rightward shift measured after by PI staining based flow cytometry analysis", "assay_type": "cell membranes"}, "[20]": {"tested_on": "Staphylococcus aureus", "assay": "Antibiofilm activity against Staphylococcus aureus ATCC6538 assessed as reduction in biofilm formation at 1 to 32 ug/ml incubated for 20 to 22 hrs by crystal violet staining based analysis", "assay_type": "functional, organism-based", "conditions": "dose 1-32 µg/ml, time 20-22 hrs"}, "[21]": {"tested_on": "Staphylococcus aureus", "assay": "Antimicrobial activity against methicillin resistant Staphylococcus aureus clinical isolate MRS70 assessed as reduction in bacterial growth incubated for 24 hrs by two-fold broth dilution method", "assay_type": "functional"}, "[22]": {"assay": "Binding affinity to Staphylococcus aureus ATCC6538 Cardiolipin assessed as dissociation constant by ITC analysis"}, "[23]": {"tested_on": "Staphylococcus aureus", "assay": "Bactericidal activity against Staphylococcus aureus ATCC6538 assessed as reduction in survival rate at 5 to 10 times MIC measured within 1 hr by colony counting method", "assay_type": "functional, organism-based"}, "[24]": {"tested_on": "Staphylococcus aureus", "assay": "Induction of membrane morphological changes in Staphylococcus aureus ATCC6538 assessed as cell surface wrinkling at 5 times of MIC measured after 0.5 hrs by FE-SEM analysis", "assay_type": "functional, organism-based"}, "[25]": {"tested_on": "Staphylococcus hominis", "assay": "Antimicrobial activity against methicillin-resistant Staphylococcus hominis assessed as reduction in bacterial growth incubated for 24 hrs by two-fold broth dilution method", "assay_type": "functional"}, "[26]": {"assay": "Selectivity index, ratio of HC50 for rabbit Red blood cell to MIC for Staphylococcus aureus ATCC6538", "assay_type": "toxicity", "conditions": "red blood cells (erythrocytes), read-out: Selectivity Index"}, "[27]": {"assay": "Toxicity in BALB/c mouse assessed as as change in ALT level at 25 to 50 mg/kg, iv", "assay_type": "organism-based", "conditions": "in vivo, dose 25-50 mg/kg"}, "[28]": {"assay": "Cytotoxicity against African green monkey Vero E6 cells assessed as reduction in cell viability measured after 24 hrs by CCK-8 method", "assay_type": "toxicity, cell-based, Chlorocebus sabaeus, Vero C1008"}, "[29]": {"tested_on": "Cell membrane", "assay": "Disruption of cell membrane integrity in methicillin resistant Staphylococcus aureus clinical isolate MRS153 assessed as increase in fluorescence intensity at 1 to 26 times MIC measured upto 36 mins ethidium bromide uptake assay", "assay_type": "cell membranes"}, "[30]": {"tested_on": "Cell membrane", "assay": "Induction of inner membrane permeabilization in methicillin resistant Staphylococcus aureus clinical isolate MRS153 assessed as increase in red fluorescence at 5 ug/ml by PI staining based analysis", "assay_type": "cell membranes", "conditions": "dose 5.0 µg/ml"}, "[31]": {"tested_on": "Staphylococcus aureus", "assay": "Antimicrobial activity against vancomycin-resistant Staphylococcus aureus assessed as reduction in bacterial growth incubated for 24 hrs by two-fold broth dilution method", "assay_type": "functional"}, "[32]": {"tested_on": "Cell membrane", "assay": "Induction of inner membrane permeabilization in methicillin resistant Staphylococcus aureus clinical isolate MRS153 assessed as increase in […] fluorescence at 5 ug/ml by PI staining based analysis", "assay_type": "cell membranes", "conditions": "dose 5.0 µg/ml"}, "[33]": {"tested_on": "Cell membrane", "assay": "Induction of Outer membrane disruption in methicillin resistant Staphylococcus aureus clinical isolate MRS153 assessed as […] in fluorescence intensity measured upto 30 mins by NPN dye based fluorescence analysis", "assay_type": "cell membranes"}, "[34]": {"tested_on": "Staphylococcus aureus", "assay": "Induction of drug resistance in Staphylococcus aureus ATCC6538 assessed as change in MIC measured after 10 passages", "assay_type": "functional"}, "[35]": {"tested_on": "Staphylococcus aureus", "assay": "In vivo antibacterial activity against methicillin-resistant Staphylococcus aureus clinical isolate MRS153 infected in C57BL/6N mouse model assessed as reduction in bacterial load in heart at 3.125 to 12.5 mg/kg, iv measured after 24 hrs", "assay_type": "functional, organism-based", "conditions": "dose 3.125-12.5 mg/kg"}, "[36]": {"tested_on": "A549", "assay": "Cytotoxicity against human A549 cells assessed as reduction in cell viability measured after 24 hrs by CCK-8 method", "assay_type": "functional, cell-based", "conditions": "A549, 24 h"}, "[37]": {"tested_on": "Staphylococcus aureus", "assay": "Antibacterial activity against methicillin-resistant Staphylococcus aureus clinical isolate MRS153 infected in C57BL/6N mouse model assessed as reversal of cell morphology to normal state at 3.125 to 12.5 mg/kg, iv", "assay_type": "functional, organism-based", "conditions": "dose 3.125-12.5 mg/kg"}, "[38]": {"assay": "Toxicity in BALB/c mouse assessed as as effect on liver at 25 to 50 mg/kg, iv by H and E staining based analysis", "assay_type": "organism-based", "conditions": "in vivo, dose 25-50 mg/kg"}, "[39]": {"tested_on": "Staphylococcus aureus", "assay": "Antimicrobial activity against methicillin resistant Staphylococcus aureus clinical isolate MRS84 assessed as reduction in bacterial growth incubated for 24 hrs by two-fold broth dilution method", "assay_type": "functional"}}, "note": "Active and inactive are the calls of the source. The rule behind the calls is not given here."}
{"compound": "O=C(CCC(F)(F)F)N(Cc1cc2ccccc2s1)c1cc(-c2noc(C(F)(F)F)n2)ccc1O", "values": [{"measurement": "MIC", "setting": "[1]", "value": 0.25, "unit": "µg/mL"}, {"measurement": "Activity", "setting": "[2]", "value": "inactive"}, {"measurement": "Activity", "setting": "[3]", "value": "Active"}, {"measurement": "Activity", "setting": "[4]", "value": "Dose-Dependent Effect"}, {"measurement": "MIC", "setting": "[5]", "value": 1, "unit": "µg/mL"}, {"measurement": "Activity", "setting": "[6]", "value": "Active"}, {"measurement": "Activity", "setting": "[7]", "value": "inactive"}, {"measurement": "MIC", "setting": "[8]", "value": 1, "unit": "µg/mL"}, {"measurement": "selectivity ratio", "setting": "[9]", "value": "> 100"}, {"measurement": "Activity", "setting": "[10]", "value": "Active"}, {"measurement": "IC50 at 24 h", "setting": "[11]", "value": "> 25", "unit": "µg/mL"}, {"measurement": "Activity", "setting": "[12]", "value": "Active"}, {"measurement": "Activity", "setting": "[13]", "value": "Non-Toxic"}, {"measurement": "Activity", "setting": "[14]", "value": "Active"}, {"measurement": "Activity", "setting": "[15]", "value": "Active"}, {"measurement": "Activity", "setting": "[16]", "value": "Active"}, {"measurement": "Activity", "setting": "[17]", "value": "Active"}, {"measurement": "HC50 at 1 h", "setting": "[18]", "value": 2400, "unit": "µg/mL"}, {"measurement": "Activity", "setting": "[19]", "value": "Active"}, {"measurement": "Activity", "setting": "[20]", "value": "Active"}, {"measurement": "MIC", "setting": "[21]", "value": 1, "unit": "µg/mL"}, {"measurement": "Kd", "setting": "[22]", "value": 5.75, "unit": "µM"}, {"measurement": "Activity", "setting": "[23]", "value": "Active"}, {"measurement": "Activity", "setting": "[24]", "value": "Active"}, {"measurement": "MIC", "setting": "[25]", "value": 1, "unit": "µg/mL"}, {"measurement": "selectivity ratio", "setting": "[26]", "value": "> 1000"}, {"measurement": "Activity", "setting": "[27]", "value": "Non-Toxic"}, {"measurement": "IC50 at 24 h", "setting": "[28]", "value": "> 25", "unit": "µg/mL"}, {"measurement": "Activity", "setting": "[29]", "value": "Active"}, {"measurement": "Activity", "setting": "[30]", "value": "Active"}, {"measurement": "MIC", "setting": "[31]", "value": 0.5, "unit": "µg/mL"}, {"measurement": "Activity", "setting": "[32]", "value": "Active"}, {"measurement": "Activity", "setting": "[33]", "value": "Dose-Dependent Effect"}, {"measurement": "Activity", "setting": "[34]", "value": "inactive"}, {"measurement": "Activity", "setting": "[35]", "value": "Active"}, {"measurement": "IC50", "setting": "[36]", "value": 16.8, "unit": "µg/mL"}, {"measurement": "Activity", "setting": "[37]", "value": "Active"}, {"measurement": "Activity", "setting": "[38]", "value": "Non-Toxic"}, {"measurement": "MIC", "setting": "[39]", "value": 2, "unit": "µg/mL"}]}
